This is an account of results in patent publication US20230098111A1, “COMPOSITIONS AND METHODS TO TREAT NEUROLOGICAL DISEASES” (University of Southern California, priority 2020, published 2023).

The test system of the assay is C9ORF72 FTD iNs. Briefly: Survival of C9ORF72 FTD iNs. The class given is cell-based, human. To be noted: DMSO or apilimod; scrambled or PIKFYVE ASOs. The text has this: (A) Survival of C9ORF72 iNs with DMSO or apilimod. Log-rank test, 100 iNs per group. […] Log-rank test, 100 iNs per group. […] Mean+/−s.e.m. Kruskal-Wallis Test.
(A, B) Survival of C9-FTD iNs treated with DMSO and Apilimod (A) or Apilimod+GW4869 (exocytosis blocker) (B). Log-rank test. 100 iNs per group. iNs quantified from 3 independent replicates per group.
Mutations in MAPT cause FTD with tau aggregates. To determine if iNs from FTD patients display neurodegenerative phenotypes, an established method to generate cortical neurons from iPSCs by forced expression of NGN2 was used. 3 FTD patient iPSC lines harboring a MAPTV337M mutation and their CRISPR-edited isogenic controls from a published cell bank were utilized. Neurons from MAPT-mutant iPSCs display increased phosphorylated and oligomeric tau, similar to post-mortem patient tissue (FIG. 18A). […] Thus, MAPT iNs display key features of FTD with tau pathology.
Thus, C9ORF72 iNs provide a robust model of FTD.
PIKFYVE inhibition rescues neurodegeneration through secretory autophagy.

As to `Cc1cccc(/C=N/Nc2cc(N3CCOCC3)nc(OCCc3ccccn3)n2)c1` [apilimod], the “survival of C9ORF72 iNs” value is reported as “also rescued C9ORF72”.
